No end group written: not given here.
Columns and labels:
[1] = tested on: fraction 4 (peptidase derived from Lactobacillus helveticus); test: Reaction of fraction 4 with chemically synthesized intermediate peptides as substrates; format: biochemical; details: substrate peptide reacted with fraction 4, HPLC
Experimental: A milk medium containing 9 wt % skim milk was inoculated with lactic acid bacteria Lactobacillus helveticus CM4 strain (deposited at National Institute of Bioscience and Human-Technology (1-3, Higashi 1 chome Tsukuba-shi Ibaraki-ken 305, Japan) under deposition number FEFM BP-6060 on Aug. 15, 1997) (referred to hereinbelow as CM4 strain). The bacteria were cultured at 37° C. for 24 hours. The CM4 strain has been accorded the aforementioned accession number under the Budapest Treaty on the International Recognition of the Deposit of Microorganisms for the Purposes of Patent Procedure. All restrictions on the availability to the public of this strain will be irrevocably removed upon the granting of a patent. To 500 ml of a fresh 9 wt % milk medium, cultured mixture was added at 5 wt %. […] was performed at 37° C. and at the pH of 6.5. Five hours after the start of pH stat culturing, sodium citrate was added so that the final concentration thereof became 2 wt %. The mixture was stirred for 30 minutes at room temperature. After confirming that the cultured liquid became clear, cell bodies were collected by centrifugation at 5000 g for 10 minutes. The cell bodies were washed twice with 50 mM phosphate buffer containing 150 mM NaCl pH 6.8, and suspended in 20 ml of 50 mM tris-Cl pH 8.0, and then crushed with an ultrasonic crusher (model 5203, manufactured by Ohtake Works Co.). Centrifugation at 15000 g was performed for 10 minutes for removing the precipitant and collecting the supernatant as a crude extract. 5 ml of the crude extract was passed through 1 ml of DEAE-sepharose column (manufactured by Pharmacia Corporation) that has been pre-equilibrated with the tris buffer. The column was washed with 5 ml of the tris buffer and then sequentially washed with 3 ml of tris buffers containing 50 mM, 100 mM, 150 mM, 200 mM, 300 mM and 500 mM NaCl, for fractionation.
An intermediate peptide Val-Pro-Pro-Phe-Leu was chemically synthesized. The synthesized peptide was dissolved at 10 μg/ml in 100 mM phosphate buffer (pH 6.1). This solution and one of the fractions 1 to 6 were mixed at the volume ratio of 9:1, and reacted at 37° C. for 30 minutes.
Further, it was confirmed that the tripeptide Ile-Pro-Pro was produced from the peptides Ile-Pro-Pro-Leu-Thr-Gln-Thr and Ile-Pro-Pro-Leu-Thr.

[2] = target: T1, Carboxypeptidase Y (Saccharomyces cerevisiae, UniProt P00729); test: Reactivity of peptidase formulations against synthetic peptides: carboxypeptidase Y alone; format: biochemical; details: for Existence of IPP or VPP peaks: no aminopeptidase, carboxypeptidase Y, phosphate buffer pH 5.3, 37° C. 3 hours, HPLC
T1 construct: purchased Sigma Chemical Co
T1 sequence (P00729 112-532): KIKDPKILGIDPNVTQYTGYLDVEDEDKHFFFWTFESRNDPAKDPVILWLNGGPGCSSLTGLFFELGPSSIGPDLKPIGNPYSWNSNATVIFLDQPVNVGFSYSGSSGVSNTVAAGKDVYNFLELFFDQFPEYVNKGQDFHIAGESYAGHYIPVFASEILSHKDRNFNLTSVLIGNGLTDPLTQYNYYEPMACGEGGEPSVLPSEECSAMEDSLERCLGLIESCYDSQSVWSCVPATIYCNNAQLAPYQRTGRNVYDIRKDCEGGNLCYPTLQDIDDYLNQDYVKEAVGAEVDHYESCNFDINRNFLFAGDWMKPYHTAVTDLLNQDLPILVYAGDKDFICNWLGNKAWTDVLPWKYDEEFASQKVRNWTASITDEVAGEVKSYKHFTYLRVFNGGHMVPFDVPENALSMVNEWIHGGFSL
Experimental: (§1) Peptides shown in Table 1 were chemically synthesized. […] All of these synthetic peptides were synthesized with the automatic peptide synthesizing machine PPSM-8 (manufactured by Shimadzu Corporation).
(§2) Each synthetic peptide was dissolved at the concentration of 10 μg/ml in 100 mM phosphate buffer pH 5.3 as to Experiments 1-1 to 1-4, 1-10 to 1-12, 1-16 and 1-21, or in 50 mM Tris-HCl buffer pH 8.0 as to other Experiments. Each of various peptidase formulations shown in Table 1 was then added so that the concentration thereof became 0.01 μg/ml, and the reaction was performed at 37° C. for 3 hours. After the enzyme reaction, the mixture was analyzed by the reverse phase high performance liquid chromatography (HPLC). […] The fractions of the detected peak were collected and amino acid sequence analysis was performed by the automatic peptide analyzer model PPSQ-10 (manufactured by Shimadzu Corporation). […]

[3] = reported in JP-A-11-100328; cited from earlier work
[4] = tested on: spontaneous hypertension rats (SHR); details: known in the prior art; cited from earlier work
[5] = target: angiotensin converting enzyme (ACE) (Homo sapiens, UniProt P12821); details: known in the prior art; cited from earlier work
[6] = tested on: hypertensive patients; details: known in the prior art; cited from earlier work
[7] = tested on: synthetic peptide consisting of the 28 amino acids (SEQ ID NO: 28); test: Two step reaction of proteinase and fraction 4 on the 28 amino acid synthetic peptide; format: biochemical; details: proteinase 0.1 μg/ml on 28-mer 10 μg/ml, pH 6.1, 37° C. 5 hours, heat inactivation, then fraction 4; HPLC
Experimental: To 10 μg/ml of the synthetic peptide consisting of the 28 amino acids that is the same as the one used in Experiment 2 (in 100 mM phosphate buffer pH 6.1), each of the commercially available proteinase enzymes for food processing shown in Table 4 was added at 0.1 μg/ml. The mixture was reacted at 37° C. for 5 hours. After finishing the reaction, the reacted liquid was heated at 100° C. for 5 minutes for inactivating the proteinase, and then reacted with the fraction 4 obtained in Experiment 4.

[8] = tested on: Aminipeptidase I + Carboxypeptidase Y; test: Reactivity of peptidase formulations against synthetic peptides: aminopeptidase I + carboxypeptidase Y; format: biochemical; details: phosphate buffer pH 5.3, 37° C. 3 hours, HPLC
Experimental: as §1, §2

angiotensin converting enzyme (ACE), sequence (P12821 30-1306, species assumed): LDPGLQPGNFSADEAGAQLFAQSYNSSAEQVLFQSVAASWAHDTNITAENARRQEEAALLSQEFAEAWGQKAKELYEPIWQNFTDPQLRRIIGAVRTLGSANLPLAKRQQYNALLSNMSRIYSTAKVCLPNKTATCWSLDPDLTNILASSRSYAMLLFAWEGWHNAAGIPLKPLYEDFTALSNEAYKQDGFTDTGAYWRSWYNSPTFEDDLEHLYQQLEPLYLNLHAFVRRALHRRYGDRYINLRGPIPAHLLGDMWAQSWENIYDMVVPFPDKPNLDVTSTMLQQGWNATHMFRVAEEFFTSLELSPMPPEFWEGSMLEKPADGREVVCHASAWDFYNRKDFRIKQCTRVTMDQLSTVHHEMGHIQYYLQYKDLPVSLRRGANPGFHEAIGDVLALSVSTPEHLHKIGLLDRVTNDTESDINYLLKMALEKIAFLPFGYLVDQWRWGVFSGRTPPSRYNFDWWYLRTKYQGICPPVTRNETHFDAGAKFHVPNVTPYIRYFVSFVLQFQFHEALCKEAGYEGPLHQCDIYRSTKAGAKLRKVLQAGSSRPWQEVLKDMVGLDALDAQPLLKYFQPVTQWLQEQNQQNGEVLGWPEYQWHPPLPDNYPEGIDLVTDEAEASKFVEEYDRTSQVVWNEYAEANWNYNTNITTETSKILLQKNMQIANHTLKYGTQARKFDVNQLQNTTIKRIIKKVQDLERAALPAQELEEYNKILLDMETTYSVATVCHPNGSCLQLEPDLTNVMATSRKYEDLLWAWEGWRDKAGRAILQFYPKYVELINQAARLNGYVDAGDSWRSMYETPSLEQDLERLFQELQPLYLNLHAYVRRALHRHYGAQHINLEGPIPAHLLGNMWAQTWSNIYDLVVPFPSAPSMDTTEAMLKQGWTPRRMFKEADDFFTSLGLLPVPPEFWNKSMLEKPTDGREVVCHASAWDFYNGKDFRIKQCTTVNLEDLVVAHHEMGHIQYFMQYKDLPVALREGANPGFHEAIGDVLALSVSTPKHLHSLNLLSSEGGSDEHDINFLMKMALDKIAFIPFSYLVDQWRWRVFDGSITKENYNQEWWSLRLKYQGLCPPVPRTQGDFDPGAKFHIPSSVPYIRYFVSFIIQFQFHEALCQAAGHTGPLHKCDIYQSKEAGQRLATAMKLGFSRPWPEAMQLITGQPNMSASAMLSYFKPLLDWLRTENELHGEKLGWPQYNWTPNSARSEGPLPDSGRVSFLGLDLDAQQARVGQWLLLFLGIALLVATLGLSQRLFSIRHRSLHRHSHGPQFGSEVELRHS

IPPLTQT
Peptide produced [1]: Ile Pro Pro
Peptide produced ([1]; listed as Ile-Pro-Pro-Leu-Thr-Gln-Thr): Ile-Pro-Pro
Existence of IPP or VPP peaks [2]: IPP

Ile Pro Pro (IPP) [Ile-Pro-Pro, tripeptide produced by the method]
anti-stress activity [3]: anti-stress activity
anti-hypertensive activity on spontaneous hypertension rats (SHR) [4]: strong anti-hypertensive activity
ACE inhibitory activity [5]: strong
anti-hypertensive effect on hypertensive patients [6]: anti-hypertensive effect

Ile Pro Pro Leu Thr (IPPLT)
Peptide produced [1]: Ile Pro Pro
Peptide produced ([1]; listed as Ile-Pro-Pro-Leu-Thr): Ile-Pro-Pro

Leu-Pro-Pro [reference compound]
ACE inhibitory activity [5]: ACE inhibitory activity

Pepsin
Production of the tripeptides Ile-Pro-Pro and Val-Pro-Pro [7]: No

QNIPPLTQT
Existence of IPP or VPP peaks [8]: IPP
Existence of IPP or VPP peaks ([8]; listed as Gln-Asn-Ile-Pro-Pro-Leu-Thr-Gln-Thr): production of the tripeptides Ile-Pro-Pro or Val-Pro-Pro was also recognized

VPPFLQ
Peptide produced [1]: Val Pro Pro
Peptide produced ([1]; listed as Val-Pro-Pro-Phe-Leu-Gln): Val-Pro-pro
Existence of IPP or VPP peaks [2]: VPP

VVVPPFLQ
Existence of IPP or VPP peaks [8]: VPP
Existence of IPP or VPP peaks ([8]; listed as Val-Val-Val-Pro-Pro-Phe-Leu-Gln): production of the tripeptides Ile-Pro-Pro or Val-Pro-Pro was also recognized

Val Pro Pro (VPP) [Val-Pro-Pro, tripeptide produced by the method]
anti-stress activity [3]: anti-stress activity
anti-hypertensive activity on spontaneous hypertension rats (SHR) [4]: strong anti-hypertensive activity
anti-hypertensive effect on hypertensive patients [6]: anti-hypertensive effect

Val Pro Pro Phe (VPPF)
Existence of IPP or VPP peaks [2]: VPP

Val Pro Pro Phe Leu (VPPFL)
Peptide produced [1]: Val Pro Pro
Peptide produced ([1]; listed as Val-Pro-Pro-Phe-Leu): Val-Pro-pro

B1: Subtilisin BPN: proteinase, Bacillus amyloliquefaciens, Sigma Chemical Co. (protein, UniProt P00782 108-382, looked up)
Subtilisin BPN': AQSVPYGVSQIKAPALHSQGYTGSNVKVAVIDSGIDSSHPDLKVAGGASMVPSETNPFQDNNSHGTHVAGTVAALNNSIGVLGVAPSASLYAVKVLGADGSGQYSWIINGIEWAIANNMDVINMSLGGPSGSAALKAAVDKAVASGVVVVAAAGNEGTSGSSSTVGYPGKYPSVIAVGAVDSSNQRASFSSVGPELDVMAPGVSIQSTLPGNKYGAYNGTSMASPHVAGAAALILSKHPNWTNTQVRSSLENTTTKLGDSFYYGKGLINVQAAAQ
Production of the tripeptides Ile-Pro-Pro and Val-Pro-Pro [7]: No

B2: Trypsin (Type I): proteinase, bovine pancreas, Sigma Chemical Co. (protein, UniProt P00760 24-246, looked up)
Serine protease 1: IVGGYTCGANTVPYQVSLNSGYHFCGGSLINSQWVVSAAHCYKSGIQVRLGEDNINVVEGNEQFISASKSIVHPSYNSNTLNNDIMLIKLKSAASLNSRVASISLPTSCASAGTQCLISGWGNTKSSGTSYPDVLKCLKAPILSDSSCKSAYPGQITSNMFCAGYLEGGKDSCQGDSGGPVVCSGKLQGIVSWGSGCAQKNKPGVYTKVCNYVSWIKQTIASN
Production of the tripeptides Ile-Pro-Pro and Val-Pro-Pro [7]: No

B3: Subtilisin Carlsberg: proteinase, Bacillus licheniformis, Sigma Chemical Co. (protein, UniProt P00780 106-379, looked up)
Subtilisin Carlsberg: AQTVPYGIPLIKADKVQAQGFKGANVKVAVLDTGIQASHPDLNVVGGASFVAGEAYNTDGNGHGTHVAGTVAALDNTTGVLGVAPSVSLYAVKVLNSSGSGSYSGIVSGIEWATTNGMDVINMSLGGASGSTAMKQAVDNAYAKGVVVVAAAGNSGSSGNTNTIGYPAKYDSVIAVGAVDSNSNRASFSSVGAELEVMAPGAGVYSTYPTNTYATLNGTSMASPHVAGAAALILSKHPNLSASQVRNRLSSTATYLGSSFYYGKGLINVEAAAQ
Production of the tripeptides Ile-Pro-Pro and Val-Pro-Pro [7]: No

B4: carboxy peptidase Y: Carboxypeptidase Y (manufactured by Sigma Chemical Co.) (protein, UniProt P00729 112-532, looked up)
Carboxypeptidase Y: T1 sequence (P00729 112-532)
Bond cleavage by the enzyme (in words) ([2]; reaction at pH 5.3): capable of effectively cleave the bond between Pro and Leu in Pro-Pro-Leu and the bond between Pro and Phe in Pro-Pro-Phe

From patent publication US6994987B1, “Process for producing tripeptides” (Calpis Co., Ltd., priority 1999, dated 2006)
